Tests used:
Type in all cases: cell-based
[1] = tested on: human corneal endothelial cells; assay: BrdU ELISA, one concentration per agent, human corneal endothelial cells (Example 9); details: 10 μM SB203580, 1 μM Semapimod, 3 μM BIRB796, 1 μM PH-797804, 3 μM VX-702, 3 μM LY2228820, 3 μM TAK-715, * p<0.01
Description: The medium was removed from a culture dish culturing human corneal endothelial cells. PBS (-) heated to 37° C. in advance was added thereto and the cells were washed. This operation was repeated twice. After removing the PBS (-) TrypLE Select (×10) (GIBCO, A12177-01) was added and the cells were incubated for 10 minutes at 37° C. (5% CO2). The cells were then suspended in Opti-MEM (GIBCO, 31985-070) and centrifuged for 3 minutes at 1200 rpm to collect the cells. A 96-well plate was treated with an FNC coating mix (50 ml ([…], catalog number: 0407). The human corneal endothelial cells (lot: C1642-P8) were seeded in a Condition Medium for humans in the coated 96-well plate at a ratio of 3000 cells/well. The cells were cultured for 30 hours at 37° C. (5% CO2). After 30 hours, the medium was removed and changed to a serum free medium: Opti-MEM+1% P/S to culture the cells for 18 hours. […] SMC20120918), BIRB796 (Doramapimod) (Selleck Chemicals, catalog number: S1574, lot number: S157402), PH-797804 (Selleck Chemicals, catalog number: S2726, lot number: 01), VX-702 (Selleck Chemicals, catalog number: S6005, lot number: 02), LY2228820 (Selleck Chemicals, catalog number: S1494, lot number: 01), and TAK-715 (Selleck Chemical, catalog number: […] DMSO was added to the control. After 24 hours, a BrdU labeling reagent (Amersham Cell Proliferation Biotrak ELISA System, Version 2, GE Healthcare, catalog number: RPN250) was further added at a ratio of 1:1000 to the DMEM+10% FBS+1% P/S medium. […] DMSO was added to the control. After 24 hours, BrdU ELISA was carried out with Amersham Cell Proliferation Biotrak ELISA System, Version 2 (GE Healthcare, catalog number: RPN250). The absorbance at 450 nm was measured.

[2] = tested on: cultured monkey corneal endothelial cells; assay: UV-induced cell death of cultured monkey corneal endothelial cells (phase difference microscope); details: UV 100 J/m^2; 9 hours after irradiation; 10 μM SB203580, 3 μM BIRB796, 1 μM PH-797804, 3 μM VX-702, 3 μM LY2228820, 3 μM TAK-715
Description: (§1) 1×10^5 cultured monkey corneal endothelial cells were seeded on a 12-well plate coated with an FNC Coating Mix and cultured for about 5 days until reaching confluence under the condition of 5% CO2 at 37° C.
Medium: Dulbecco's Modified Eagle Medium (DMEM, Gibco, 12320-032), 10% FBS, 1% Penicillin-Streptomycin (nacalai tesque, 26252-94)
(§2) Each inhibitor was then added at the concentration in the above-described Table and the cells were incubated for 16 hours under the condition of 5% CO2 at 37° C. The solvent of each reagent, Dimethyl Sulfoxide, Sterile-filtered (nacalai tesque, 13408-64) MSO, was added to the Control group and the UV group. Gibco DMEM, 1% P/S (penicillin/streptomycin) was used as the medium.
(§3) The cellular supernatant was then removed and the cells were irradiated with UV (100 J/m^2). After irradiation, cells were again added to a medium containing each inhibitor and cultured for 9 hours. The cell form and apoptosis were observed under a phase difference microscope.

[3] = tested on: cultured monkey corneal endothelial cells; assay: UV-induced apoptosis of cultured monkey corneal endothelial cells, Annexin V and DAPI staining; details: UV 100 J/m^2, after 9 hours of culture
Description: as §1, §2, §3
The cells, after 9 hours of culture, were stained for 20 minutes at 37° C. by using MEBCYTO-Apoptosis Kit (Annexin V-FITC Kit) (manufacturer: MBL, Code: 4700). The cells were then immobilized for 10 minutes with 95% acetic acid ethanol. After immobilization, the cells were stained for 30 minutes with DAPI Solution (manufacturer: DOJINDO, Code: GA098) and observed under a confocal microscope.

corneal endothelium = assay: UV-induced apoptosis of corneal endothelium in rabbit sclerocornea segments, Annexin V and DAPI staining; details: rabbit corneal tissue; UV 100 J/m^2; stored 24 hours at 4° C.; 10 μM SB203580, 3 μM BIRB796, 1 μM PH-797804, 3 μM VX-702, 3 μM LY2228820, 3 μM TAK-715
Description: The experiment used a rabbit eye ball 0-24 hours after euthanasia. Sclerocornea was removed along the corneal limbus under a stereo microscope by using spring scissors. The crystalline lens and iris were removed to make a sclerocornea segment. […] After dividing a cornea, pretreatment was applied to the Control group for 2 hours in the dark with Optisol-GS® (Bausch & Lomb) (Lot. […] After washing the cornea twice with PBS(−), 100 J/m^2 of UV was irradiated onto the corneal endothelial cells, which were against stored for 24 hours at 4° C. […] The sclerocornea segments were washed with PBS(−), and MEBCYTO-Apoptosis kit (Annexin V-FITC kit) (MBL) (Lot. 027FA) was used for Annexin V and DAPI staining. The segments were immersed and immobilized for 30 minutes in −30° C. ice-cooled 95% ethanol. In order to remove ethanol components, PBS(−) was exchanged every 5 minutes and the segments were washed three times. An antifading agent was then added and enclosed. Annexin V and nuclei was observed by fluorescence imaging under a confocal microscope. The percentage of Annexin V positive cells were calculated in the above-described rabbit corneal tissue. *p<0.05 (Dunnett's test).

Cc1ccc(-n2nc(C(C)(C)C)cc2NC(=O)Nc2ccc(OCCN3CCOCC3)c3ccccc23)cc1 [BIRB796, N-[3-tert-butyl-1-(4-methylphenyl)pyrazole-5-yl]-N′-[4-(2-morpholinoethoxy)-1-naphthyl]urea]
BrdU uptake as a percentage with respect to the control (proliferation) [1]: promotes proliferation
Cellular disorders (cell death) induced by UV [2]: suppressed
Apoptosis induced by UV (annexin V staining) [3]: suppressed
Apoptosis induced by UV (annexin V staining) (corneal endothelium): suppressed

CC(C)(C)Cn1c(N)nc2ccc(-c3nc(C(C)(C)C)[nH]c3-c3ccc(F)cc3)nc21 [LY2228820, 5-(2-(tert-butyl)-5-(4-fluorophenyl)-1H-imidazole-4-yl)-3-neopentyl-3H-imidazo[4,5-b]pyridine-2-amine]
BrdU uptake as a percentage with respect to the control (proliferation) [1]: promotes proliferation
Cellular disorders (cell death) induced by UV [2]: suppressed
Apoptosis induced by UV (annexin V staining) [3]: suppressed
Apoptosis induced by UV (annexin V staining) (corneal endothelium): suppressed

CNC(=O)c1ccc(C)c(-n2c(C)cc(OCc3ccc(F)cc3F)c(Br)c2=O)c1 [PH-797804, 3-(3-bromo-4-((2,4-difluorobenzyl)oxy)-6-methyl-2-oxopyridine-1(2H)-yl)-N,4-dimethylbenzamide]
BrdU uptake as a percentage with respect to the control (proliferation) [1]: promotes proliferation
Cellular disorders (cell death) induced by UV [2]: suppressed
Apoptosis induced by UV (annexin V staining) [3]: suppressed
Apoptosis induced by UV (annexin V staining) (corneal endothelium): suppressed

C[S+]([O-])c1ccc(-c2nc(-c3ccncc3)c(-c3ccc(F)cc3)[nH]2)cc1 (centres unmarked) [SB203580, 4-(4-fluorophenyl)-2-(4-methylsulfinylphenyl)-5-(4-pyridyl)-1H-imidazole]
BrdU uptake as a percentage with respect to the control (proliferation) [1]: promotes proliferation
Cellular disorders (cell death) induced by UV [2]: suppressed
Apoptosis induced by UV (annexin V staining) [3]: suppressed
Apoptosis induced by UV (annexin V staining) (corneal endothelium): suppressed

CCc1nc(-c2cccc(C)c2)c(-c2ccnc(NC(=O)c3ccccc3)c2)s1 [TAK-715, 2-benzamide-4-[2-ethyl-4-(3-methylphenyl)thiazole-5-yl]pyridine]
BrdU uptake as a percentage with respect to the control (proliferation) [1]: promotes proliferation
Cellular disorders (cell death) induced by UV [2]: suppressed
Apoptosis induced by UV (annexin V staining) [3]: suppressed
Apoptosis induced by UV (annexin V staining) (corneal endothelium): suppressed

From US10813920B2, “Drug for treating corneal endothelium by promoting cell proliferation or inhibiting cell damage” (THE DOSHISHA, priority 2013, dated 2020)
